According to the supplement of paper PMC10307832:

Key:
Assay in all cases: relative viability (nuclei count vs DMSO), 5 days (fraction); higher = more cells survive
Obatoclax + Palbociclib = compound: COC1=CC(c2cc3ccccc3[nH]2)=N/C1=C\c1[nH]c(C)cc1C [Obatoclax] + CC(=O)c1c(C)c2cnc(Nc3ccc(N4CCNCC4)cn3)nc2n(C2CCCC2)c1=O [Palbociclib] (partner 0.5 µM)
In short: (§1)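 Relative viability was taken as the ratio of nuclei in treated wells to nuclei in vehicle wells. Lung cancer cell lines in 1536-well plates received compounds by pin tool one day after seeding, either one drug alone or a fixed anchor-drug dose plus five library-drug doses (not always all listed) in √10 steps. Nuclei were counted on 4× images after 5 days of treatment, and values are medians of duplicate plates.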

Obatoclax + Bortezomib = compound: COC1=CC(c2cc3ccccc3[nH]2)=N/C1=C\c1[nH]c(C)cc1C [Obatoclax] + CC(C)C[C@H](NC(=O)[C@H](Cc1ccccc1)NC(=O)c1cnccn1)B(O)O [Bortezomib] (partner 0.002 µM)
In short: as §1

Bortezomib + Lapatinib = compound: CC(C)C[C@H](NC(=O)[C@H](Cc1ccccc1)NC(=O)c1cnccn1)B(O)O [Bortezomib] + CS(=O)(=O)CCNCc1ccc(-c2ccc3ncnc(Nc4ccc(OCc5cccc(F)c5)c(Cl)c4)c3c2)o1 [Lapatinib] (partner 2 µM)
In short: as §1

Bortezomib + Foretinib = compound: CC(C)C[C@H](NC(=O)[C@H](Cc1ccccc1)NC(=O)c1cnccn1)B(O)O [Bortezomib] + COc1cc2c(Oc3ccc(NC(=O)C4(C(=O)Nc5ccc(F)cc5)CC4)cc3F)ccnc2cc1OCCCN1CCOCC1 [Foretinib] (partner 0.25 µM)
In short: as §1

Cell Line: NCI-H650
- relative viability (Obatoclax + Palbociclib; first compound 0.01 µM): 0.319
- relative viability (Obatoclax + Palbociclib; first compound 0.03162 µM): 0.352
- relative viability (Obatoclax + Palbociclib; first compound 0.3162 µM): 0.178
- relative viability (Obatoclax + Palbociclib; first compound 1 µM): 0.184
- relative viability (Obatoclax + Bortezomib; first compound 0.01 µM): 0.795
- relative viability (Obatoclax + Bortezomib; first compound 0.03162 µM): 0.732
- relative viability (Obatoclax + Bortezomib; first compound 0.1 µM): 0.455
- relative viability (Obatoclax + Bortezomib; first compound 0.3162 µM): 0.504
- relative viability (Obatoclax + Bortezomib; first compound 1 µM): 0.337
- relative viability (Bortezomib + Lapatinib; first compound 0.000632 µM): 0.596
- relative viability (Bortezomib + Lapatinib; first compound 0.002 µM): 1.02
- relative viability (Bortezomib + Lapatinib; first compound 0.006325 µM): 0.382
- relative viability (Bortezomib + Lapatinib; first compound 0.02 µM): 0.175
- relative viability (Bortezomib + Foretinib; first compound 0.000632 µM): 1.08
- relative viability (Bortezomib + Foretinib; first compound 0.002 µM): 0.847
- relative viability (Bortezomib + Foretinib; first compound 0.006325 µM): 0.4
- relative viability (Bortezomib + Foretinib; first compound 0.02 µM): 0.173
